A short description of this series: Tissue, plasma and GI content pharmacokinetics of tacrolimus, oral vs intra-cecal ingestible device delivery. The settings on record: swine; intra-cecally vs orally administered, 12 hours post-dose (FIG. 76). It counts as in vivo, Yorkshire-Cross farm swine. The method, then:
No further randomization procedure was employed.
Animals in Group 1 received an ingestible device containing 0.8 mL of vehicle solution (80% alcohol, 20% HCO-60). Animals in Group 2 received orally […] liquid formulation of tacrolimus at 4 mg/0.8 mL per animal (Prograf. 5 mg/mL). Animals in Group 3 received intra-cecally an ingestible device containing tacrolimus at 1 mg in 0.8 mL per ingestible device. Animals in Group 4 received intra-cecally an ingestible device containing tacrolimus at 2 mg in 0.8 mL per ingestible device. Animals in Group 5 received intra-cecally an ingestible device containing tacrolimus at 4 mg in 0.8 mL per ingestible device. […]
Approximately 200˜400 mg of rectal content were collected, if available, with a fecal swab (Copan Diagnostics Nylon Flocked Dry Swabs, 502CS01). The fecal swab was pre-weighed and weighed after collection in the collection tube (Sterile Tube and Cap No Media, PFPM913S), and the sample weight was recorded. […]
For tissue necropsy, small intestine fluid and cecal fluid were collected separately from all the animals into two separate square plastic bottles, and stored at −20° C. The length and diameter of the cecum and the colon was measured from one animal in each group and recorded for reference. […] All samples were weighed, and the tissue sample weights were recorded. […]

We go through one compound from patent US12150775B2, “Treatment of a disease of the gastrointestinal tract with an immunosuppressant” (BIORA THERAPEUTICS, INC., priority 2016, dated 2024).

With `C=CC[C@@H]1/C=C(\C)C[C@H](C)C[C@H](OC)[C@H]2O[C@@](O)(C(=O)C(=O)N3CCCC[C@H]3C(=O)O[C@H](/C(C)=C/[C@@H]3CC[C@@H](O)[C@H](OC)C3)[C@H](C)[C@@H](O)CC1=O)[C@H](C)C[C@@H]2OC` [tacrolimus, Tacrolimus], the “mean concentration of tacrolimus in the cecum tissue” value is given as “higher” and the “mean concentration of tacrolimus in the proximate colon tissue” value was “higher”.
